Patent US20250186379A1, “METHODS AND AGENTS FOR DECREASING INSULIN RESISTANCE” (Whitehead Institute for Biomedical Research, priority 2021, published 2025)
Entries after “also recorded” stand apart in the source; their conditions may differ.

Key:
IR puncta = assay: Immunofluorescence for IR in human primary adipocytes; format: cell-based; details: for IR incorporation into puncta: 3 nM insulin 5 minutes
Method: Primary pre-adipocytes from (ATCC, PCS-210-010) were cultured in Fibroblast Growth Kit-Low Serum (ATCC PCS-201-041), as per manufacturer's instructions. Cells for experiments were dissociated and plated at 18,000 cells/cm2. Two days later pre-adipocytes were differentiated in adipocyte differentiation media (ATCC PCS-500-050), as per manufacturer's instructions. Briefly, cells were washed and medium was replaced with adipocyte differentiation initiation medium. After 48 hours, half the medium was replaced. At day 4, medium was changed to adipocyte differentiation maintenance medium, and replaced every three days. At day 12, cells were rinsed and incubated in DMEM (Thermo Fisher, 11885084) with 0.1 or 3 nM of insulin for 5 days, replacing medium every other day. In the last 24 hours, 12.5 μM metformin was added. On day 17, cells were prepared for the assays by rinsing, and 30 minutes of washing. Afterwards, for imaging, cells were exposed to 3 nM insulin for 5 minutes, rinsed with PBS and fixed in 4% PFA for 15 minutes at room temperature. For pAKT ELISAs cells were exposed to 3 nM insulin for 15 minutes and harvested in cell lysis buffer (Cell Signaling Technology, #9803) with phosphatase inhibitor (Thermo Fisher Scientific, 78442).
For adipocytes, following differentiation, cells were cultured with EMEM for 2 days and with EMEM containing either physiological (0.1 nM) or pathological (3 nM) concentrations of insulin for 2 days. Cells were then cultured with EMEM containing either physiological (0.1 nM) or pathological (3 nM) of insulin or with pathological (3 nM) concentrations of insulin and 12.5 μM of metformin for 1 day. Cells were then washed with EMEM and acutely stimulated with or without 3 nM insulin for 5 minutes prior to cell collection for immunofluorescence or ELISA.
HepG2 cells, human liver spheroids, human primary adipocytes and human tissue liver sections were fixed in 4% PFA (VWR, BT140770-10X10) in PBS (Life Technologies, AM9625) for 10 minutes at room temperature. […]

HepG2 cells [1] = assay: Stable isotope tracing for lipogenesis in HepG2 cells; format: cell-based, human
Method: To wash out insulin, cells were washed with EMEM (ATCC 30-2003) seven times, including: three quick washes, three 5-minute washes and a long 20 minute-wash in EMEM at 37° C. Cells were then cultured in EMEM supplemented with 1 mM Sodium acetate-^13C2(Sigma Aldrich, 282014) and with either 0 nM insulin or 1 nM insulin for 36 hours. Media was replenished after 24 hours. Cells were then processed for metabolite isolation (see below).
Metabolite isolation from HepG2 cells: cells were washed in ice-cold PBS (Life Technologies, AM9625), 500 μl of cold 80% MeOH (shared by the Metabolite Profiling Core Facility) was added per well of a 6-well plate and the plate was placed at −80° C. for at least 15 minutes. Following the −80 incubation, the plate was scraped on dry ice and the solution was transferred to a 1.5 ml tube and then vortexed for 5 minutes. To remove cellular debris, the samples were centrifuged at maximum speed for 10 minutes at 4° C. and the supernatant was transferred to a new 1.5 mL tube on dry ice. To remove solvents, the samples were lyophilized using Refrigerated CentriVap Benchtop Vacuum Concentrator connected to a CentriVap-105 Cold Trap (Labconco). Metabolite pellets were re-suspended in LC-MS grade water (ThermoFisher) and vortexed for 10 minutes at 4° C. Samples were centrifuged at 16,000 g for 10 minutes at 4° C. and supernatant was moved into LC-MS vials. […]

HepG2 cells [2] = assay: Glucose production in HepG2 cells; format: cell-based, human
Method: Insulin sensitive and resistant cells were cultured in EMEM for 30 minutes and then cells were treated with 0, 0.1, 1 and 10 nM insulin in glucose production media, containing DMEM (Thermo Fisher Scientific, A1443001), 15 mM HEPES (Gibco, 15630-080), 1 mM pyruvate (Sigma Aldrich, P5280), 20 mM lactate (Sigma Aldrich, L7022-5G) for 4-5 hours. Media was removed and glucose production was measured using Amplex™ Red Glucose/Glucose oxidase assay kit (Thermo Fisher Scientific, A22189) according to the manufacturer's specifications.
To wash out insulin, cells were washed with EMEM (ATCC 30-2003) seven times, including: three quick washes, three 5-minute washes and a long 20 minute-wash in EMEM at 37° C. Cells were washed with glucose-free RPMI (Gibco, 11879-020) then cultured in glucose-free RPMI for 3 hours. […] Cells were then processed for metabolite isolation (see below).
Metabolite isolation from HepG2 cells: cells were washed in ice-cold PBS (Life Technologies, AM9625), 500 μl of cold 80% MeOH (shared by the Metabolite Profiling Core Facility) was added per well of a 6-well plate and the plate was placed at −80° C. for at least 15 minutes. Following the −80 incubation, the plate was scraped on dry ice and the solution was transferred to a 1.5 ml tube and then vortexed for 5 minutes. […]

IR condensates = assay: Immunofluorescence for IR in human liver tissue from donors; format: in vivo; details: liver tissue of donors with T2D treated with metformin vs T2D and healthy donors
Source text: (§1) Images were then processed using Fiji/ImageJ v2.1.0/153c.
as §1

[3] = cells exposed to pathologic levels (3 nM) of insulin for two days

| Compound | IR incorporation into puncta (IR puncta; insulin-resistant adipocytes) | IR incorporation into puncta (IR puncta; insulin-sensitive adipocytes) | lipogenesis after insulin stimulation (HepG2 cells [1]; [3]) | lipogenesis (HepG2 cells [1]; insulin-sensitive HepG2 cells, 1 nM insulin 36 hours) | glucose production after insulin stimulation (HepG2 cells [2]; [3]) | glucose production (HepG2 cells [2]; insulin-sensitive HepG2 cells, acute insulin stimulation (FIGS. 22G-22H)) | IR incorporation into puncta (IR signal) (IR puncta; insulin-resistant adipocytes, 12.5 μM metformin 1 day, 3 nM insulin 5 min) | IR signal in condensates/puncta of hepatocytes (IR condensates) |
| --- | --- | --- | --- | --- | --- | --- | --- | --- |
| insulin: insulin (Sigma Aldrich, I9278-5ML) used for acute stimulation and chronic physiological or pathological exposure | less able to promote further IR incorporation into puncta | promoted further IR incorporation into these puncta | unchanged | increased lipogenesis | unchanged | decreased glucose production |  |  |
| CN(C)C(=N)N=C(N)N [metformin, reference compound] |  |  |  |  |  |  | reversed | increased IR signals in condensates that approximated those seen in tissue from healthy donors; also recorded: IR punctate signals similar to those observed in healthy tissues |
